# According to paper PMC5042751 (Molecular Medicine Reports, 2016):
# Where two headings read alike, the source gives them in different places.
# Columns and labels:
# Mrp2 [1] = assay: Intestinal and hepatic mRNA expression by RT-qPCR; type: in vivo, rats
# OATP1B2 = assay: Hepatic protein expression by western blotting; type: in vivo, rats; details: rat liver
# Cyp3a2 [2] = system: Cyp3a2
# Mrp2 [3] = assay: Intestinal and hepatic protein expression by western blotting; type: in vivo, rats
# P-gp = details: for decrease in protein expression level of P-gp: Que 100 mg/kg (high-dose) oral 7 days vs control
# OATP2B1 = assay: Intestinal protein expression by western blotting; type: in vivo, rats; details: rat small intestine
# Ugt1a1 [4] = assay: Intestinal and hepatic mRNA expression by RT-qPCR; type: in vivo, rats
# Cyp3a2 [5] = system: Cyp3a2; remark: listed apart in the source
# Bcrp [6] = assay: Intestinal and hepatic protein expression by western blotting; type: in vivo, rats
# Cyp3a1 [7] = system: Cyp3a1
# Slco1b2 = assay: Hepatic mRNA expression by RT-qPCR; type: in vivo, rats; details: rat liver
# Bcrp [8] = assay: Intestinal and hepatic mRNA expression by RT-qPCR; type: in vivo, rats
# Slco2b1 = assay: Intestinal mRNA expression by RT-qPCR; type: in vivo, rats; details: rat small intestine
# Ugt1a1 [9] = assay: Intestinal and hepatic protein expression by western blotting; type: in vivo, rats
# Mdr1 = details: for decrease in mRNA expression level of Mdr1: rat liver
# Cyp3a1 [10] = system: Cyp3a1; remark: listed apart in the source
# [11] = rat liver, Que 25 mg/kg oral 7 days without CsA (Que-WOC) vs control
# [12] = rat liver, Que 25 mg/kg with CsA 10 mg/kg oral 7 days (Que-WC) vs CsA alone
# [13] = rat liver, Que 50 mg/kg oral 7 days without CsA (Que-WOC) vs control
# [14] = rat liver, Que 50 mg/kg with CsA 10 mg/kg oral 7 days (Que-WC) vs CsA alone
# [15] = rat liver, Que 100 mg/kg oral 7 days without CsA (Que-WOC) vs control
# [16] = rat liver, Que 100 mg/kg with CsA 10 mg/kg oral 7 days (Que-WC) vs CsA alone
# [17] = rat small intestine, Que 25 mg/kg oral 7 days without CsA (Que-WOC) vs control
# [18] = rat small intestine, Que 50 mg/kg oral 7 days without CsA (Que-WOC) vs control
# [19] = rat small intestine, Que 100 mg/kg oral 7 days without CsA (Que-WOC) vs control
# [20] = Que 25 mg/kg oral 7 days without CsA (Que-WOC) vs control
# [21] = Que 50 mg/kg oral 7 days without CsA (Que-WOC) vs control
# [22] = Que 50 mg/kg with CsA 10 mg/kg oral 7 days (Que-WC) vs CsA treatment
# [23] = Que 100 mg/kg oral 7 days without CsA (Que-WOC) vs control
# [24] = Que 100 mg/kg with CsA 10 mg/kg oral 7 days (Que-WC) vs CsA treatment
# [25] = rat liver, Que 100 mg/kg with CsA 10 mg/kg oral 7 days (Que-WC) vs CsA treatment
# [26] = rat liver, Que 25 mg/kg (low-dose) oral 7 days vs control
# [27] = rat liver, Que 50 mg/kg (moderate-dose) oral 7 days vs control
# [28] = rat liver, Que 100 mg/kg (high-dose) oral 7 days vs control
smiles,measurement,setting,value
"O=c1c(O)c(-c2ccc(O)c(O)c2)oc2cc(O)cc(O)c12 [Que, 3,3′,4′,5,7-pentahydroxyflavone]",decrease in mRNA expression level of Mrp2,Mrp2 [1]; [11],45%
same,decrease in mRNA expression level of Mrp2,Mrp2 [1]; [12],38%
same,decrease in mRNA expression level of Mrp2,Mrp2 [1]; [13],52%
same,decrease in mRNA expression level of Mrp2,Mrp2 [1]; [14],36%
same,decrease in mRNA expression level of Mrp2,Mrp2 [1]; [15],98%
same,decrease in mRNA expression level of Mrp2,Mrp2 [1]; [16],99%
same,decrease in mRNA expression level of Mrp2,Mrp2 [1]; [17],45%
same,decrease in mRNA expression level of Mrp2,Mrp2 [1]; [18],69%
same,decrease in mRNA expression level of Mrp2,Mrp2 [1]; [19],96%
same,change in protein expression level of OATP1B2,OATP1B2; [20],did not produce a significant effect
same,decrease in protein expression level of OATP1B2,OATP1B2; [21],48%
same,decrease in protein expression level of OATP1B2,OATP1B2; [22],38%
same,decrease in protein expression level of OATP1B2,OATP1B2; [23],86%
same,decrease in protein expression level of OATP1B2,OATP1B2; [24],72%
same,decrease in mRNA expression level of Cyp3a2,Cyp3a2 [2]; [11],21%
same,decrease in mRNA expression level of Cyp3a2,Cyp3a2 [2]; [12],16%
same,decrease in mRNA expression level of Cyp3a2,Cyp3a2 [2]; [13],37%
same,decrease in mRNA expression level of Cyp3a2,Cyp3a2 [2]; [14],48%
same,decrease in mRNA expression level of Cyp3a2,Cyp3a2 [2]; [15],49%
same,decrease in mRNA expression level of Cyp3a2,Cyp3a2 [2]; [16],57%
same,decrease in mRNA expression level of Cyp3a2,Cyp3a2 [2]; [17],61%
same,decrease in mRNA expression level of Cyp3a2,Cyp3a2 [2]; [18],70%
same,decrease in mRNA expression level of Cyp3a2,Cyp3a2 [2]; [19],90%
same,decrease in protein expression level of MRP2,Mrp2 [3]; [11],14%
same,decrease in protein expression level of MRP2,"Mrp2 [3]; rat liver, Que 25 mg/kg with CsA 10 mg/kg oral 7 days (Que-WC) vs CsA treatment",22%
same,decrease in protein expression level of MRP2,Mrp2 [3]; [13],27%
same,decrease in protein expression level of MRP2,"Mrp2 [3]; rat liver, Que 50 mg/kg with CsA 10 mg/kg oral 7 days (Que-WC) vs CsA treatment",23%
same,decrease in protein expression level of MRP2,Mrp2 [3]; [15],58%
same,decrease in protein expression level of MRP2,Mrp2 [3]; [25],35%
same,decrease in protein expression level of MRP2,Mrp2 [3]; [17],13%
same,decrease in protein expression level of MRP2,Mrp2 [3]; [18],45%
same,decrease in protein expression level of MRP2,Mrp2 [3]; [19],93%
same,change in protein expression level of P-gp,P-gp; [26],did not produce a significant effect
same,change in protein expression level of P-gp,P-gp; [27],did not produce a significant effect
same,decrease in protein expression level of P-gp,P-gp; rat liver,84%
same,decline in protein expression level of P-gp,P-gp; [25],76%
same,change in protein expression level of P-gp,"P-gp; rat small intestine, Que 25 mg/kg (low-dose) oral 7 days vs control",did not produce a significant effect
same,change in protein expression level of P-gp,"P-gp; rat small intestine, Que 50 mg/kg (moderate-dose) oral 7 days vs control",did not produce a significant effect
same,decrease in protein expression level of P-gp,P-gp; rat small intestine,81%
same,change in protein expression level of OATP2B1,OATP2B1; [20],did not produce a significant effect
same,decrease in protein expression level of OATP2B1,OATP2B1; [21],43%
same,decrease in protein expression level of OATP2B1,OATP2B1; [23],76%
same,decrease in mRNA expression of Ugt1a1,Ugt1a1 [4]; [11],41%
same,decrease in mRNA expression level of Ugt1a1,Ugt1a1 [4]; [12],28%
same,decrease in mRNA expression of Ugt1a1,Ugt1a1 [4]; [13],81%
same,decrease in mRNA expression level of Ugt1a1,Ugt1a1 [4]; [14],71%
same,decrease in mRNA expression of Ugt1a1,Ugt1a1 [4]; [15],92%
same,decrease in mRNA expression level of Ugt1a1,Ugt1a1 [4]; [16],92%
same,decrease in mRNA expression of Ugt1a1,Ugt1a1 [4]; [17],20%
same,decrease in mRNA expression of Ugt1a1,Ugt1a1 [4]; [18],76%
same,decrease in mRNA expression of Ugt1a1,Ugt1a1 [4]; [19],84%
same,change in protein expression level of CYP3A2,Cyp3a2 [5]; [26],did not produce significant effects
same,change in protein expression level of CYP3A2,Cyp3a2 [5]; [27],did not produce significant effects
same,decrease in protein expression level of CYP3A2,Cyp3a2 [5]; [28],73%
same,decrease in protein expression level of CYP3A2,Cyp3a2 [5]; [16],54%
same,decrease in protein expression level of CYP3A2,Cyp3a2 [5]; [17],14%
same,decrease in protein expression level of CYP3A2,Cyp3a2 [5]; [18],40%
same,decrease in protein expression level of CYP3A2,Cyp3a2 [5]; [19],95%
same,decrease in protein expression level of BCRP,Bcrp [6]; [11],7%
same,decrease in protein expression level of BCRP,Bcrp [6]; [12],23%
same,decrease in protein expression level of BCRP,Bcrp [6]; [13],27%
same,decrease in protein expression level of BCRP,Bcrp [6]; [14],31%
same,decrease in protein expression level of BCRP,Bcrp [6]; [15],75%
same,decrease in protein expression level of BCRP,Bcrp [6]; [16],67%
same,decrease in protein expression level of BCRP,Bcrp [6]; [17],17%
same,decrease in protein expression level of BCRP,Bcrp [6]; [18],49%
same,decrease in protein expression level of BCRP,Bcrp [6]; [19],90%
same,change in protein expression level of CYP3A1,Cyp3a1 [7]; [26],did not produce significant effects
same,change in protein expression level of CYP3A1,Cyp3a1 [7]; [27],did not produce significant effects
same,decrease in protein expression level of CYP3A1,Cyp3a1 [7]; [28],70%
same,decrease in protein expression level of CYP3A1,Cyp3a1 [7]; [16],56%
same,decrease in protein expression level of CYP3A1,Cyp3a1 [7]; [17],17%
same,decrease in protein expression level of CYP3A1,Cyp3a1 [7]; [18],45%
same,decrease in protein expression level of CYP3A1,Cyp3a1 [7]; [19],91%
same,decrease in mRNA expression level of Slco1b2,Slco1b2; [20],79%
same,decrease in mRNA expression level of Slco1b2,Slco1b2; Que 25 mg/kg with CsA 10 mg/kg oral 7 days (Que-WC) vs CsA treatment,72%
same,decrease in mRNA expression level of Slco1b2,Slco1b2; [21],92%
same,decrease in mRNA expression level of Slco1b2,Slco1b2; [22],90%
same,decrease in mRNA expression level of Slco1b2,Slco1b2; [23],95%
same,decrease in mRNA expression level of Slco1b2,Slco1b2; [24],94%
same,decrease in mRNA expression level of Bcrp,Bcrp [8]; [11],55%
same,decrease in mRNA expression level of Bcrp,Bcrp [8]; [12],68%
same,decrease in mRNA expression level of Bcrp,Bcrp [8]; [13],77%
same,decrease in mRNA expression level of Bcrp,Bcrp [8]; [14],77%
same,decrease in mRNA expression level of Bcrp,Bcrp [8]; [15],88%
same,decrease in mRNA expression level of Bcrp,Bcrp [8]; [16],89%
same,decrease in mRNA expression level of Bcrp,Bcrp [8]; [17],46%
same,decrease in mRNA expression level of Bcrp,Bcrp [8]; [18],70%
same,decrease in mRNA expression level of Bcrp,Bcrp [8]; [19],92%
same,decrease in mRNA expression level of Slco2b1,Slco2b1; [20],84%
same,decrease in mRNA expression level of Slco2b1,Slco2b1; [21],92%
same,decrease in mRNA expression level of Slco2b1,Slco2b1; [23],97%
same,decrease in protein expression level of UGT1A1,Ugt1a1 [9]; [11],16%
same,change in protein expression level of UGT1A1,Ugt1a1 [9]; [12],did not produce significant effects
same,decrease in protein expression level of UGT1A1,Ugt1a1 [9]; [13],42%
same,change in protein expression level of UGT1A1,Ugt1a1 [9]; [14],did not produce significant effects
same,decrease in protein expression level of UGT1A1,Ugt1a1 [9]; [15],87%
same,decrease in protein expression level of UGT1A1,Ugt1a1 [9]; [16],72%
same,decrease in protein expression level of UGT1A1,Ugt1a1 [9]; [17],12%
same,decrease in protein expression level of UGT1A1,Ugt1a1 [9]; [18],41%
same,decrease in protein expression level of UGT1A1,Ugt1a1 [9]; [19],91%
same,decrease in mRNA expression level of Mdr1,Mdr1; [20],64%
same,decrease in mRNA expression level of Mdr1,Mdr1; Que 25 mg/kg with CsA 10 mg/kg oral 7 days (Que-WC) vs CsA alone,68%
same,decrease in mRNA expression level of Mdr1,Mdr1; [21],87%
same,decrease in mRNA expression level of Mdr1,Mdr1; Que 50 mg/kg with CsA 10 mg/kg oral 7 days (Que-WC) vs CsA alone,68%
same,decrease in mRNA expression level of Mdr1,Mdr1; [23],91%
same,decrease in mRNA expression level of Mdr1,Mdr1; Que 100 mg/kg with CsA 10 mg/kg oral 7 days (Que-WC) vs CsA alone,90%
same,change in mRNA expression level of Mdr1,Mdr1; [17],did not produce a significant effect
same,increase in mRNA expression level of Mdr1,Mdr1; [18],75%
same,increase in mRNA expression level of Mdr1,Mdr1; [19],80%
same,decrease in mRNA expression level of Cyp3a1,Cyp3a1 [10]; [11],37%
same,decrease in mRNA expression level of Cyp3a1,Cyp3a1 [10]; [12],31%
same,decrease in mRNA expression level of Cyp3a1,Cyp3a1 [10]; [13],86%
same,decrease in mRNA expression level of Cyp3a1,Cyp3a1 [10]; [14],77%
same,decrease in mRNA expression level of Cyp3a1,Cyp3a1 [10]; [15],98%
same,decrease in mRNA expression level of Cyp3a1,Cyp3a1 [10]; [16],65%
same,decrease in mRNA expression level of Cyp3a1,Cyp3a1 [10]; [17],45%
same,decrease in mRNA expression level of Cyp3a1,Cyp3a1 [10]; [18],83%
same,decrease in mRNA expression level of Cyp3a1,Cyp3a1 [10]; [19],88%
